In patent US20240279278A1, “NMU RECEPTOR 2 AGONISTS” (Boehringer Ingelheim International GmbH, priority 2023, published 2024):
Residues, ends and D or L forms follow the SMILES beside them.

What was measured:
human NMUR1 receptor = target: T1, human NMUR1 receptor (Homo sapiens, UniProt Q9HB89); assay: IP1 Gq HTRF assay, activation of human NMUR1 in buffer; type: cell-based; details: CHO-K1 cells expressing human NMUR1, stimulation buffer with 0.1% BSA; read-out: EC50 (hNMUR1) buffer
T1 construct: expressed in transfected cells; host or cells: CHO-K1
T1 sequence (Q9HB89 1-426): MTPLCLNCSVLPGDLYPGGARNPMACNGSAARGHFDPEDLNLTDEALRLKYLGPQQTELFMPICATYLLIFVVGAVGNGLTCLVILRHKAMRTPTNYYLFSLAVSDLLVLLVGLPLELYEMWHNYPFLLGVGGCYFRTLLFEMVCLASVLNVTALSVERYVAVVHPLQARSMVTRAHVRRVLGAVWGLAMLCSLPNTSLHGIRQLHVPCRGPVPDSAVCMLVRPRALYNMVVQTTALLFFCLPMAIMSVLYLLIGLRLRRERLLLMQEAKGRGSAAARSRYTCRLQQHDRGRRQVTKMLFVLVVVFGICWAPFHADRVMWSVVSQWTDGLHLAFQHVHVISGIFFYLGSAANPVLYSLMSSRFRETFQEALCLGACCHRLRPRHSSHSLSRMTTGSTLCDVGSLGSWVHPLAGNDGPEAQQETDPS
Summary of the method: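 IP-One HTRF competition (665/620 nm ratio) read after 1 h agonist exposure at 37 °C in pH 7.4 HEPES/HBSS stimulation buffer containing 50 mM LiCl, 0.1% BSA, 1% DMSO. Cells: CHO-K1 stably expressing human NMUR2 or NMUR1. EC50 by 4-parameter nonlinear regression of 8-point curves.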

human NMUR2 receptor = human NMUR2 receptor (Homo sapiens, UniProt Q9GZQ4); assay: IP1 Gq HTRF assay, activation of human NMUR2 in human plasma; type: cell-based; set-up: expressed in transfected cells; host or cells: CHO-K1; details: CHO-K1 cells expressing human NMUR2, 100% human plasma; read-out: EC50 (hNMUR2) human plasma
Summary of the method: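 EC50 obtained via 4-parameter sigmoidal regression of HTRF IP-One signal (665 nm/620 nm), which falls as intracellular IP1 rises. Stimulation: 1 h, 37° C, peptides in human plasma plus 50 mM LiCl, 1% DMSO final, on NMUR2-expressing CHO-K1 cells, 8 concentrations.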

Sequence of human NMUR2 receptor (Q9GZQ4 whole entry): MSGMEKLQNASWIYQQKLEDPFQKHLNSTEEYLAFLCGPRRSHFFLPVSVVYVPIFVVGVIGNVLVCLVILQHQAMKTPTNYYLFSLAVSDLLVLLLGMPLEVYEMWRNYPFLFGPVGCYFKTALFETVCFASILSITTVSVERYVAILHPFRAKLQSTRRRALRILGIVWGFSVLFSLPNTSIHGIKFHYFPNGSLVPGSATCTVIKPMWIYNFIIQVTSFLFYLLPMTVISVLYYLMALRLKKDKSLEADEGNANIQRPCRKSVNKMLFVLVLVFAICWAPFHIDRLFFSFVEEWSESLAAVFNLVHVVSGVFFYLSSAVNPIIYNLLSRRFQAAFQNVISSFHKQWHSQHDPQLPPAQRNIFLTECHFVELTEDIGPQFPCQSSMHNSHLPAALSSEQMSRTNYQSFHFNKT

| Structure (SMILES) | EC50 (human NMUR1 receptor) | EC50 (human NMUR2 receptor) |
| --- | --- | --- |
| CCCC[C@H](NC(=O)[C@H](CC(C)C)N(C)C(=O)[C@H](Cc1ccccc1)NC(=O)[C@H](Cc1ccc(O)cc1)NC(=O)CN1CCN(CCNC(=O)CN(C)C(=O)CN(C)C(=O)CN(C)C(=O)CN(C)C(=O)CN(C)C(=O)CN(C)C(=O)CN(C)C(=O)CN(C)C(=O)CN(C)C(=O)CC[C@H](NC(=O)CC[C@H](NC(=O)CC[C@H](NC(=O)CCCCCCCCCCCCCCCCCCC(=O)O)C(=O)O)C(=O)O)C(=O)O)CC1)C(=O)N[C@@H](CCCNC(=N)N)C(=O)N1CCC[C@H]1C(=O)N[C@@H](CCCNC(=N)N)C(=O)NCC(N)=O [Compound 65, C20DA-gGlu3-Sar9-AEPipAc-Tyr-Phe-NMeLeu-Nle-Arg-Pro-Arg-Gly-NH2] (HELM PEPTIDE1{[O=C(O)CCCCCCCCCCCCCCCCCCC(=O)[*:2]].[gGlu].[gGlu].[gGlu].[Sar].[Sar].[Sar].[Sar].[Sar].[Sar].[Sar].[Sar].[Sar].[O=C(CN1CCN(CCN[*:1])CC1)[*:2]].Y.F.[meL].[Nle].R.P.R.G.[am]}$$$$V2.0) | 130 nM | 11.7 nM |
| CCCC[C@H](NC(=O)[C@H](CC(C)C)N(C)C(=O)[C@H](Cc1ccccc1)NC(=O)[C@H](Cc1ccc(O)cc1)NC(=O)CN1CCN(CCNC(=O)CN(C)C(=O)CN(C)C(=O)CN(C)C(=O)CN(C)C(=O)CN(C)C(=O)CN(C)C(=O)CN(C)C(=O)CN(C)C(=O)CN(C)C(=O)CN(C)C(=O)CN(C)C(=O)CN(C)C(=O)CN(C)C(=O)CN(C)C(=O)CN(C)C(=O)CC[C@H](NC(=O)CC[C@H](NC(=O)CC[C@H](NC(=O)CCCCCCCCCCCCCCCCC(=O)O)C(=O)O)C(=O)O)C(=O)O)CC1)C(=O)N[C@@H](CCCNC(=N)N)C(=O)N(C)[C@@H](C)C(=O)N[C@@H](CCCNC(=N)N)C(=O)NCC(N)=O [Compound 11, C18DA-gGlu3-Sar15-AEPipAc-Tyr-Phe-NMeLeu-Nle-Arg-NMeAla-Arg-Gly-NH2] (HELM PEPTIDE1{[O=C(O)CCCCCCCCCCCCCCCCC(=O)[*:2]].[gGlu].[gGlu].[gGlu].[Sar].[Sar].[Sar].[Sar].[Sar].[Sar].[Sar].[Sar].[Sar].[Sar].[Sar].[Sar].[Sar].[Sar].[Sar].[O=C(CN1CCN(CCN[*:1])CC1)[*:2]].Y.F.[meL].[Nle].R.[meA].R.G.[am]}$$$$V2.0) | 1100 nM | 10.6 nM |
| CCCC[C@H](NC(=O)[C@H](CC(C)C)N(C)C(=O)[C@H](Cc1ccccc1)NC(=O)[C@H](Cc1ccc(O)cc1)NC(=O)CN1CCN(CCNC(=O)CN(C)C(=O)CN(C)C(=O)CN(C)C(=O)CN(C)C(=O)CN(C)C(=O)CN(C)C(=O)CN(C)C(=O)CN(C)C(=O)CN(C)C(=O)CN(C)C(=O)CN(C)C(=O)CN(C)C(=O)CC[C@H](NC(=O)CC[C@H](NC(=O)CC[C@H](NC(=O)CCCCCCCCCCCCCCCCC(=O)O)C(=O)O)C(=O)O)C(=O)O)CC1)C(=O)N[C@@H](CCN)C(=O)N1CCC[C@H]1C(=O)N[C@@H](CCCNC(=N)N)C(=O)NCC(N)=O [Compound 27, C18DA-gGlu3-Sar12-AEPipAc-Tyr-Phe-NMeLeu-Nle-Dbu-Pro-Arg-Gly-NH2] | 1700 nM | 6.9 nM |
| CCCC[C@H](NC(=O)[C@H](CC(C)C)N(C)C(=O)[C@H](Cc1ccccc1)NC(=O)[C@H](Cc1ccc(O)cc1)NC(=O)CN1CCN(CCNC(=O)CN(C)C(=O)CN(C)C(=O)CN(C)C(=O)CN(C)C(=O)CN(C)C(=O)CN(C)C(=O)CN(C)C(=O)CN(C)C(=O)CN(C)C(=O)CN(C)C(=O)CN(C)C(=O)CN(C)C(=O)CN(C)C(=O)CN(C)C(=O)CN(C)C(=O)CC[C@H](NC(=O)CC[C@H](NC(=O)CC[C@H](NC(=O)CCCCCCCCCCCCCCCCC(=O)O)C(=O)O)C(=O)O)C(=O)O)CC1)C(=O)N[C@@H](CCCN)C(=O)N1CCC[C@H]1C(=O)N[C@@H](CCCNC(=N)N)C(=O)NCC(N)=O [Compound 21, C18DA-gGlu3-Sar15-AEPipAc-Tyr-Phe-NMeLeu-Nle-Orn-Pro-Arg-Gly-NH2] (HELM PEPTIDE1{[O=C(O)CCCCCCCCCCCCCCCCC(=O)[*:2]].[gGlu].[gGlu].[gGlu].[Sar].[Sar].[Sar].[Sar].[Sar].[Sar].[Sar].[Sar].[Sar].[Sar].[Sar].[Sar].[Sar].[Sar].[Sar].[O=C(CN1CCN(CCN[*:1])CC1)[*:2]].Y.F.[meL].[Nle].[Orn].P.R.G.[am]}$$$$V2.0) | > 1000 nM | 8.7 nM |
